Assay: mn = molality of the nth substance listed, in mol/kg
Conditions: 101 kPa, Liquid; for molar conductivity: Alternating current cell with electrodes; for speed of sound: Sing-around technique in a fixed-path interferometer

O=P([O-])(O)O.[Na+] [sodium dihydrogen phosphate] + O
Conditions | mass density [kg/m3] | molar conductivity [S·m2/mol] | speed of sound [m/s]
293.15 K, m1 = 0.5812 | 1047.85 | – | –
293.15 K, m1 = 0.6658 | 1054.7 | – | –
293.15 K, m1 = 0.7462 | 1061.08 | – | –
293.15 K, m1 = 0.9163 | 1074.46 | – | –
293.15 K, m1 = 1.093 | 1088.3 | – | –
293.15 K, m1 = 1.262 | 1100.87 | – | –
293.15 K, m1 = 1.451 | 1114.43 | – | –
293.15 K, m1 = 1.758 | 1135.93 | – | –
293.15 K, m1 = 2.041 | 1155.22 | – | –
293.15 K, m1 = 2.374 | 1177.26 | – | –
293.15 K, m1 = 2.747 | 1200.86 | – | –
293.15 K, m1 = 3.115 | 1222.16 | – | –
293.15 K, m1 = 3.512 | 1245.55 | – | –
298.15 K, m1 = 0.0207 | – | 0.00762 | –
298.15 K, m1 = 0.0343 | 1000.13 | – | 1500.2
298.15 K, m1 = 0.0415 | – | 0.00723 | –
298.15 K, m1 = 0.0484 | 1001.36 | – | 1501.7
298.15 K, m1 = 0.0697 | – | 0.00683 | –
298.15 K, m1 = 0.1051 | – | 0.00655 | –
298.15 K, m1 = 0.1397 | – | 0.00634 | –
298.15 K, m1 = 0.1399 | 1009.35 | – | 1510.6
298.15 K, m1 = 0.167 | 1011.69 | – | 1513.2
298.15 K, m1 = 0.1901 | – | 0.0061 | –
298.15 K, m1 = 0.1967 | 1014.27 | – | 1516.2
298.15 K, m1 = 0.2231 | 1016.57 | – | 1518.7
298.15 K, m1 = 0.2357 | – | 0.0059 | –
298.15 K, m1 = 0.2506 | 1018.89 | – | 1521.3
298.15 K, m1 = 0.2947 | – | 0.00572 | –
298.15 K, m1 = 0.3229 | 1025.07 | – | 1528.2
298.15 K, m1 = 0.3516 | – | 0.00553 | –
298.15 K, m1 = 0.3586 | 1028.07 | – | 1531.5
298.15 K, m1 = 0.433 | – | 0.00533 | –
298.15 K, m1 = 0.4346 | 1034.3 | – | 1538.3
298.15 K, m1 = 0.5108 | 1040.52 | – | 1545
298.15 K, m1 = 0.5113 | – | 0.00517 | –
298.15 K, m1 = 0.5812 | 1046.29 | – | 1551.3
298.15 K, m1 = 0.5842 | – | 0.00496 | –
298.15 K, m1 = 0.653 | – | 0.00484 | –
298.15 K, m1 = 0.6658 | 1053.09 | – | 1558.7
298.15 K, m1 = 0.6999 | – | 0.00475 | –
298.15 K, m1 = 0.7462 | 1059.42 | – | 1565.5
298.15 K, m1 = 0.7919 | – | 0.00457 | –
298.15 K, m1 = 0.9163 | 1072.73 | – | 1579.9
298.15 K, m1 = 0.9206 | – | 0.00436 | –
298.15 K, m1 = 1.093 | 1086.48 | – | 1594.8
298.15 K, m1 = 1.175 | – | 0.00398 | –
298.15 K, m1 = 1.18 | – | 0.00398 | –
298.15 K, m1 = 1.262 | 1098.98 | – | 1608.4
298.15 K, m1 = 1.447 | – | 0.00367 | –
298.15 K, m1 = 1.451 | 1112.46 | – | 1623.1
298.15 K, m1 = 1.758 | 1133.86 | – | 1646.4
298.15 K, m1 = 1.794 | – | 0.00329 | –
298.15 K, m1 = 2.041 | 1153.06 | – | 1667.7
298.15 K, m1 = 2.079 | – | 0.00303 | –
298.15 K, m1 = 2.374 | 1175 | – | 1692.3
298.15 K, m1 = 2.396 | – | 0.00276 | –
298.15 K, m1 = 2.398 | – | 0.00278 | –
298.15 K, m1 = 2.747 | 1198.51 | – | 1718.9
298.15 K, m1 = 3.115 | 1219.74 | – | 1743.2
298.15 K, m1 = 3.512 | 1243.05 | – | 1770.5
303.15 K, m1 = 0.0343 | 998.703 | – | 1512.4
303.15 K, m1 = 0.0484 | 999.924 | – | 1513.9
303.15 K, m1 = 0.1399 | 1007.86 | – | 1522.5
303.15 K, m1 = 0.167 | 1010.18 | – | 1525.1
303.15 K, m1 = 0.1967 | 1012.74 | – | 1527.9
303.15 K, m1 = 0.2231 | 1015.02 | – | 1530.4
303.15 K, m1 = 0.2506 | 1017.33 | – | 1532.9
303.15 K, m1 = 0.3229 | 1023.47 | – | 1539.5
303.15 K, m1 = 0.3586 | 1026.45 | – | 1542.6
303.15 K, m1 = 0.4346 | 1032.64 | – | 1549.3
303.15 K, m1 = 0.5108 | 1038.82 | – | 1555.8
303.15 K, m1 = 0.5812 | 1044.55 | – | 1561.8
303.15 K, m1 = 0.6658 | 1051.31 | – | 1568.9
303.15 K, m1 = 0.7462 | 1057.61 | – | 1575.5
303.15 K, m1 = 0.9163 | 1070.83 | – | 1589.4
303.15 K, m1 = 1.093 | 1084.51 | – | 1603.7
303.15 K, m1 = 1.262 | 1096.94 | – | 1616.8
303.15 K, m1 = 1.451 | 1110.36 | – | 1631
303.15 K, m1 = 1.758 | 1131.66 | – | 1653.4
303.15 K, m1 = 2.041 | 1150.78 | – | 1673.9
303.15 K, m1 = 2.374 | 1172.65 | – | 1697.5
303.15 K, m1 = 2.747 | 1196.07 | – | 1723.2
303.15 K, m1 = 3.115 | 1217.23 | – | 1746.5
303.15 K, m1 = 3.512 | 1240.48 | – | 1772.8

Reference: the NIST ThermoML archive (doi:10.1016/j.jct.2008.01.018)
